Test results reported in patent publication US12410155B2, “Salt form and crystal form of tetrahydrocyclohepta indazole compound” (Zhejiang Yangli Pharmaceutical Technology Co., Ltd., priority 2021, dated 2025).
Like-named read-outs stand apart in the source and are kept apart here.

Molecular target: T1, ERα (Homo sapiens, UniProt P03372)
T1 construct: degradation effects on ERα in various breast cancer cell lines; endogenous in cells; host or cells: MCF-7, T-47D, CAMA-1
T1 sequence (P03372 1-595): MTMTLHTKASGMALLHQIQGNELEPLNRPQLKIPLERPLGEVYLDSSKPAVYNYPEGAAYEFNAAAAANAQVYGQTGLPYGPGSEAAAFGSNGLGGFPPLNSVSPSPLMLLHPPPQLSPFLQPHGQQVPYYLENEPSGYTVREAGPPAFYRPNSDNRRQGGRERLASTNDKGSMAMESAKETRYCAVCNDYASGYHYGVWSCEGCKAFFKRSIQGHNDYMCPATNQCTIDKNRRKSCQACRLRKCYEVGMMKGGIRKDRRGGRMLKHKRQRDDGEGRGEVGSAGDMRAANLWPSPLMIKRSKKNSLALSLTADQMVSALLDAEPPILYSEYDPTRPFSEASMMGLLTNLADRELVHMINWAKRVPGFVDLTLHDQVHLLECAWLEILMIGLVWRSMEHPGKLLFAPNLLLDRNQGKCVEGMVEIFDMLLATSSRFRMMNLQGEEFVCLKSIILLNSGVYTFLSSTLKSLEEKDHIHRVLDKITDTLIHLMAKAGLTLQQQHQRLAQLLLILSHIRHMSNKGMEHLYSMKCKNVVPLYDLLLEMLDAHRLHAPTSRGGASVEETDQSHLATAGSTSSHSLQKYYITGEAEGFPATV
Experiment: ERα degradation assay (ICW) in MCF-7, T-47D and CAMA-1 cells
Format: cell-based
Details: 4 hours, read-out: IC50 (nM), degradation effect on ERα
Method: (3) ERα Degradation Assay in MCF-7, T-47D, and CAMA-1 Cells
• 1) The complete culture medium was aspirated from the culture flask, followed by the addition of an appropriate amount of trypsin for rinsing. The trypsin solution was then aspirated to remove residual serum. • 2) Subsequently, an appropriate amount of trypsin was added for a second rinse and aspirated. The culture flask was placed in an incubator for 2-3 minutes, then removed, and gently agitated to detach the cells. • 3) The cells were resuspended in fresh complete culture medium and counted using a cell counter. • 4) The cell suspension was prepared according to the required plating density. • 5) A volume of 30.0 μL of the cell suspension was added to each well of a 384-well plate. • 6) The experimental plate was placed in a centrifuge and centrifuged at 1000 rpm for 1 minute. • 7) The experimental plate was then incubated overnight in a cell incubator. • 8) According to the sample addition diagram of experimental plate (refer to 3.5.1), 20.0 μL of the diluted test sample was added to each well. […] The plate was incubated at 4° C. overnight. • 19) The primary antibody solution in the plate was discarded, and the plate was washed five times with PBS using a multidrop. • 20) A mixture of 25 μL of secondary antibody and DRAQ5 was added to each well, and incubated at room temperature for 1 hour. • 21) The plate was washed five times with PBS using a multidrop. • 22) The plate was washed with ddH2O twice, and patted dry. • 23) The plate was subsequently read using the Odyssey infrared imaging system. […]
The IC50 values were calculated using GraphPad Prism 7.0, a data analysis software.
This experiment evaluated the effect of compound of formula (I) on the expression of ERα protein in MCF-7, T-47D, and CAMA-1 cells. The expression levels of ERα protein were detected using the ICW assay after 4 hours of drug treatment.

Q: Which results are given for `FCCCN1CC[C@H](Nc2cnc(C3=C(CC(F)(F)F)CCCc4c3ccc3[nH]nc(F)c43)cn2)C1` [Compound of formula (I)]?
A: DC50 (CAMA-1 cells): 1.25 nM; DC50 (MCF-7 cells): 0.235 nM; DC50 (T-47D cells): 0.78 nM
